Results taken from PMC5390315 (Scientific Reports, 2017).
Where “and” joins values, the source holds several entries; their conditions need not be identical. Equal entries are not always repeated. Where two headings read alike, the source gives them in different places.

Legend:
[1] = test system: panel of five cancer cell lines; design: method as in PMID 23117171; conditions: read-out: IC50 range (Figure 1); cited from earlier work
MCF-7 = experiment: Antiproliferative MTT assay, MCF-7; assay type: cell-based, human; conditions: mean ± SE
Experimental: (§1) Human T-cell leukemia (Jurkat) and human B-cell leukemia (SEM and RS4;11) cells were grown in RPMI-1640 medium (Gibco, Milano, Italy). Breast adenocarcinoma (MCF-7), human cervix carcinoma (HeLa), human lung adenocarcinoma (A549) and human colon adenocarcinoma (HT-29) cells were grown in DMEM medium (Gibco, Milano, Italy), all supplemented with 115 units/mL penicillin G (Gibco, Milano, Italy), 115 μg/mL streptomycin (Invitrogen, Milano, Italy), and 10% fetal bovine serum (FBS; Invitrogen, Milano, Italy). Stock solutions (10 mM) of the different compounds were obtained by dissolving them in DMSO. Individual wells of a 96-well tissue culture microtiter plate were inoculated with 100 μL of complete medium containing 8 × 10^3 cells. The plates were incubated at 37 °C in a humidified 5% CO2 incubator for 18 h prior to the experiments. After medium removal, 100 μL of fresh medium containing the test compound at different concentrations was added to each well in triplicate and incubated at 37 °C for 72 h. The percentage of DMSO in the medium never exceeded 0.25%. This was also the maximum DMSO concentration in all cell-based assays described below.

Jurkat = experiment: Antiproliferative MTT assay, Jurkat; assay type: cell-based, human; conditions: 72 h, mean ± SE
Experimental: as §1

A549 = experiment: Antiproliferative MTT assay, A549; assay type: cell-based, human; conditions: mean ± SE
Experimental: as §1

SEM cells = experiment: Antiproliferative MTT assay, SEM; assay type: cell-based, human; conditions: 72 h, mean ± SE
Experimental: as §1

RS 4;11 = experiment: Antiproliferative MTT assay, RS 4;11; assay type: cell-based, human; conditions: mean ± SE
Experimental: as §1

HeLa = experiment: Antiproliferative MTT assay, HeLa; assay type: cell-based, human; conditions: 72 h, mean ± SE
Experimental: as §1

HT-29 = experiment: Antiproliferative MTT assay, HT-29; assay type: cell-based, human; conditions: mean ± SE
Experimental: as §1

tubulin = experiment: Inhibition of [3H]colchicine binding to tubulin; conditions: tubulin 1 μM, [3H]colchicine 5 μM
Experimental: (§2) To evaluate the effect of the compounds on tubulin assembly in vitro[41], varying concentrations of compounds were preincubated with 10 μM bovine brain tubulin in 0.8 M monosodium glutamate (pH adjusted to 6.6 with HCl in a 2.0 M stock solution) at 30 °C and then cooled to 0 °C. After addition of 0.4 mM GTP, the mixtures were transferred to 0 °C cuvettes in a recording spectrophotometer and warmed to 30 °C. Tubulin assembly was followed turbidimetrically at 350 nm. […] The capacity of the test compounds to inhibit colchicine binding to tubulin was measured as described, except that the reaction mixtures contained 1 μM tubulin, 5 μM [^3H]colchicine and 1 or 5 μM test compound.

bovine brain tubulin = experiment: Inhibition of tubulin polymerization; assay type: biochemical; conditions: tubulin at 10 μM; read-out: Tubulin assembly IC50 ± S.D
Experimental: as §2

[2] = test system: panel of seven human tumor cell lines; experiment: Antiproliferative activity, range over panel of seven human tumor cell lines; assay type: cell-based
Experimental: as §1

[3] = test system: BL6-B16 murine melanoma cells; experiment: Mouse allograft tumor model (BL6-B16 melanoma); assay type: in vivo
Description: Animal experiments were approved by our local animal ethics committee (OPBA, Organismo Preposto al Benessere degli Animali, Università degli Studi di Brescia, Italy) and were executed in accordance with national guidelines and regulations. Procedures involving animals and their care conformed with institutional guidelines that comply with national and international laws and policies (EEC Council Directive 86/609, OJ L 358, 12 December 1987) and with “ARRIVE” guidelines (Animals in Research Reporting In Vivo Experiments). Six week old C57BL/6 mice (Charles River, Calco) were injected subcutaneously into the dorsolateral flank with 2.5x10^5 BL6-B16 murine melanoma cells in 200 μL of PBS. When tumors were palpable, animals were treated intraperitoneally every other day with different doses of test compounds dissolved in 50 μL of DMSO. Tumors were measured in two dimensions, and tumor volume was calculated according to the formula V = (D × d^2)/2, where D and d are the major and minor perpendicular tumor diameters, respectively.

[4] = Homo sapiens, read-out: IC50 values, range over the cell line panel

Compound | IC50 (MCF-7; Homo sapiens, MCF7, 72 h) | IC50 (Jurkat; Homo sapiens, Jurkat) | IC50 (A549; Homo sapiens, A549, 72 h) | IC50 (SEM cells; Homo sapiens) | IC50 (RS 4;11; Homo sapiens, RS4-11, 72 h) | melting point | IC50 (HeLa; Homo sapiens, HeLa) | IC50 (HT-29; Homo sapiens, HT-29, 72 h) | Colchicine binding % inhibition ± S.D, 5 μM drug (tubulin) | IC50 (bovine brain tubulin) | other results
COc1cc(-c2nc(C)sc2-c2ccc(C)cc2)cc(OC)c1OC [Compound 3a] |  |  |  |  |  |  |  |  |  |  | IC50 [1]: 520 to 1900 nM
COc1ccc(-c2oc(C)nc2-c2cc(OC)c(OC)c(OC)c2)cc1Cl [Compound 4h, 5-(3-Chloro-4-methoxyphenyl)-4-(3,4,5-trimethoxyphenyl)-2-methyloxazole] | 144 ± 64.3 nM | 512 ± 92.7 nM | 138 ± 13.7 nM | 233 ± 34.6 nM | 47 ± 13.9 nM | 150 to 152 °C | 169 ± 75.5 nM | 207 ± 93 nM |  |  | 
COc1cc(-c2oc(C)nc2-c2ccc(Cl)cc2)cc(OC)c1OC [Compound 5c, 4-(4-Chlorophenyl)-5-(3,4,5-trimethoxyphenyl)-2-methyloxazole] | > 10000 nM | 5250 ± 0.934 nM | > 10000 nM | 6570 ± 500 nM | 815 ± 406 nM | 149 to 151 °C | 2560 ± 475 nM | > 10000 nM |  |  | 
COc1cc(-c2nc(C)oc2-c2ccc(C)cc2)cc(OC)c1OC [Compound 4d, 4-(3,4,5-Trimethoxyphenyl)-2-methyl-5-p-tolyloxazole] | 244 ± 74.2 nM | 102 ± 22.6 nM | 92.3 ± 21.5 nM | 134 ± 39.5 nM | 25.3 ± 3.2 nM | 110 to 112 °C | 31 ± 16 nM | 53 ± 24.6 nM | 86% and 82 ± 3% | 660 nM | Colchicine binding % inhibition ± S.D, 1 μM drug (tubulin): 55 ± 3%; IC50 [2, 4]: 25 to 243 nM
5-(3,4,5-Trimethoxyphenyl)-4-(4-chlorophenyl)-2-methyloxazole [Compound 4c] |  |  |  |  |  |  |  |  |  |  | IC50 (MCF-7; 72 h): 2590 ± 447 nM; IC50 (Jurkat): 5580 ± 888 nM; IC50 (A549; 72 h): 8780 ± 2310 nM; IC50 (SEM cells): 2210 ± 256 nM; IC50 (RS 4;11; 72 h): 840 ± 260 nM; IC50 (HeLa): 2820 ± 169 nM; IC50 (HT-29; 72 h): 1400 ± 384 nM
5-(3,4,5-Trimethoxyphenyl)-4-(4-fluorophenyl)-2-methyloxazole [Compound 4b] |  |  |  |  |  |  |  |  |  |  | IC50 (MCF-7; 72 h): > 10000 nM; IC50 (Jurkat): > 10000 nM; IC50 (A549; 72 h): > 10000 nM; IC50 (SEM cells): 9550 ± 2050 nM; IC50 (RS 4;11; 72 h): > 10000 nM; IC50 (HeLa): > 10000 nM; IC50 ([2]; read-out: IC50 values against all cell lines screened): > 9000 nM; IC50 (HT-29; 72 h): > 10000 nM
CCOc1ccc(-c2sc(C)nc2-c2cc(OC)c(OC)c(OC)c2)cc1 [Compound 3c] |  |  |  |  |  |  |  |  |  |  | IC50 [1]: 43 to 3300 nM
COc1ccc(-c2oc(C)nc2-c2cc(OC)c(OC)c(OC)c2)cc1F [Compound 4g, 5-(3-Fluoro-4-methoxyphenyl)-4-(3,4,5-trimethoxyphenyl)-2-methyloxazole] | 2.5 ± 0.7 nM | 4.6 ± 1 nM | 0.65 ± 0.08 nM | 3.9 ± 0.8 nM | 0.35 ± 0.15 nM | 127 to 129 °C | 2.4 ± 0.6 nM | 3.3 ± 1.1 nM | 78 ± 0.5% | 1200 nM | Colchicine binding % inhibition ± S.D, 1 μM drug (tubulin): 51 ± 1%; IC50 [2, 4]: 0.35 to 4.6 nM
COc1cc(-c2oc(C)nc2-c2ccc(F)cc2)cc(OC)c1OC [Compound 5b, 4-(4-Fluorophenyl)-5-(3,4,5-trimethoxyphenyl)-2-methyloxazole] | > 10000 nM | 9000 ± 577 nM | > 10000 nM | > 10000 nM | > 10000 nM | 132 to 133 °C | > 10000 nM | > 10000 nM |  |  | IC50 ([2]; Homo sapiens, read-out: IC50 values against all cell lines screened): > 9000 nM
COc1ccc(-c2nc(C)oc2-c2cc(OC)c(OC)c(OC)c2)cc1 [Compound 5e, 5-(3,4,5-Trimethoxyphenyl)-4-(4-methoxyphenyl)-2-methyloxazole] | 83.8 ± 20.2 nM | 43.6 ± 12.3 nM | 243 ± 51.5 nM | 96.6 ± 22.5 nM | 17.3 ± 4.2 nM | 108 to 110 °C | 24 ± 10.5 nM | 12.3 ± 5.9 nM | 54 ± 3% | 2600 ± 300 nM | 
COc1ccc(-c2sc(C)nc2-c2cc(OC)c(OC)c(OC)c2)cc1 [Compound 3b] |  |  |  |  |  |  |  |  |  |  | IC50 [1]: 500 to 3400 nM
5-(3,4,5-Trimethoxyphenyl)-4-(3-methoxyphenyl)-2-methyloxazole [Compound 4f] |  |  |  |  |  |  |  |  |  |  | IC50 (MCF-7; 72 h): > 10000 nM; IC50 (Jurkat): 5230 ± 88.2 nM; IC50 (A549; 72 h): > 10000 nM; IC50 (SEM cells): 3630 ± 171 nM; IC50 (RS 4;11; 72 h): 5330 ± 167 nM; IC50 (HeLa): > 10000 nM; IC50 (HT-29; 72 h): > 10000 nM
COc1ccc(-c2nc(C)sc2-c2cc(OC)c(OC)c(OC)c2)cc1 [Compound 3e, 2-methyl-4-(4′-methoxyphenyl)-5-(3′,4’,5′-trimethoxyphenyl)thiazole, reference compound] | 1930 ± 448 nM | 7200 ± 586 nM | 2760 ± 1200 nM | 1980 ± 780 nM | 2970 ± 738 nM |  | 1980 ± 780 nM | 3700 ± 263 nM |  |  | 
COc1cc(-c2nc(C)sc2-c2ccc3ccccc3c2)cc(OC)c1OC [Compound 3d] |  |  |  |  |  |  |  |  |  |  | IC50 [1]: 33 to 700 nM
COc1ccc(-c2oc(C)nc2-c2cc(OC)c(OC)c(OC)c2)cc1 [Compound 4e, 4-(3,4,5-Trimethoxyphenyl)-5-(4-methoxyphenyl)-2-methyloxazole] | 27.7 ± 12 nM | 18.7 ± 6 nM | 179 ± 36.3 nM | 35.6 ± 12.5 nM | 7.6 ± 2.3 nM | 134 to 136 °C | 10.8 ± 4.7 nM | 40.8 ± 19.7 nM | 78 ± 3% | 950 ± 100 nM | Colchicine binding % inhibition ± S.D, 1 μM drug (tubulin): 47 ± 4%
COc1cc(-c2oc(C)nc2-c2ccc3ccccc3c2)cc(OC)c1OC [Compound 5a, 5-(3,4,5-Trimethoxyphenyl)-2-methyl-4-(naphthalen-3-yl)oxazole] | 5.2 ± 2.4 nM | 638 ± 154 nM | 45.2 ± 12.5 nM |  | 250 ± 89.3 nM | 95 to 97 °C | 37 ± 14.4 nM | 315 ± 145 nM | 64 ± 4% | 1600 ± 100 nM | 
COc1ccc(/C=C\c2cc(OC)c(OC)c(OC)c2)cc1OP(=O)(O)O [CA-4P, CA-4 disodium phosphate, reference compound] |  |  |  |  |  |  |  |  |  |  | reduction in tumor mass [3]: 28.0%
CCOc1ccc(-c2oc(C)nc2-c2cc(OC)c(OC)c(OC)c2)cc1Cl [Compound 4j, 5-(3-Chloro-4-ethoxyphenyl)-4-(3,4,5-trimethoxyphenyl)-2-methyloxazole] | 1.5 ± 0.6 nM | 77.7 ± 6.1 nM | 20.3 ± 11.4 nM | 51 ± 13.5 nM | 20.2 ± 5.4 nM | 124 to 126 °C | 4.2 ± 1.3 nM | 0.9 ± 0.5 nM | 53 ± 3% | 1800 ± 100 nM | 
COc1cc(-c2oc(C)nc2-c2ccc(C)cc2)cc(OC)c1OC [Compound 5d, 5-(3,4,5-Trimethoxyphenyl)-2-methyl-4-p-tolyloxazole] | 360 ± 52.6 nM | 922 ± 76.6 nM | 2580 ± 289 nM | 352 ± 77.8 nM | 635 ± 387 nM | 128 to 129 °C | 148 ± 55.3 nM | 523 ± 61.8 nM |  |  | 
